Assay: Penetration amount of moisture control material inside hair (extraction, HPLC)
Details: compared to corresponding composition without 2-hydroxyethyl urea (XXVII and XXVIII)
Procedure: Each hair tress is extracted 3 times with 0.1% TFA (Trifluoroacetic acid) in methanol and the individual extracts are analyzed separately using HPLC method.

In the case of `O=C(O)c1ccccc1O` [Salicylic acid], the “Increase of penetration inside hair with 2% of 2-hydroxyethyl urea” value is reported as 14%.
